Assay: Reduction of Na2S: total sulfur and sulfate after addition of oxidizer, Series 7
Conditions: 100 ml DI water with ~5 mg sodium sulfide; several days after addition of oxidizer
Method: A series of containers each containing 100 ml DI water in which ˜5 mg of sodium sulfide was dissolved were prepared. To each container an appropriate amount of an oxidizer or a control solution was added as follows: • a. […] Monochloroamine (MCA) formed from ammonium sulfate and NaOCl (1:1 molar ratio, each component pre-diluted before mixing, 15 ppm as total chlorine). • d.
Samples were analyzed for total sulfur and for sulfate several days after addition of oxidizer.

O=N[O-].[Na+] [Test A, NaNO2]
% S remaining: 100%

From patent publication US9179682B2, “Biocides and apparatus” (A.Y. Laboratories Ltd., priority 2004, dated 2015)
